Paper PMC4778717 (ChemMedChem, 2015)
≈ marks a conversion by molar mass, not a printed value.

Legend:
[1] = tested on: E. coli NR698; test: Bacteriostatic effect; type: cell-based; details: for MIC, E. coli NR698: 24 hr incubation at 37 °C, outer membrane leaky mutant; for MIC: Escherichia coli, NR698, 24 h, read-out: MIC, E. coli NR698
[2] = tested on: S. aureus 6538; test: Bacteriostatic effect; type: cell-based; details: for MIC, S. aureus 6538: 24 hr incubation at 37 °C; for MIC: Staphylococcus aureus, 6538, 24 h, read-out: MIC, S. aureus 6538
[3] = target: EcSecAN68 (Escherichia coli, UniProt P10408); test: biochemical; parameters: species or system E. coli
Chain of EcSecAN68 (P10408 1-610): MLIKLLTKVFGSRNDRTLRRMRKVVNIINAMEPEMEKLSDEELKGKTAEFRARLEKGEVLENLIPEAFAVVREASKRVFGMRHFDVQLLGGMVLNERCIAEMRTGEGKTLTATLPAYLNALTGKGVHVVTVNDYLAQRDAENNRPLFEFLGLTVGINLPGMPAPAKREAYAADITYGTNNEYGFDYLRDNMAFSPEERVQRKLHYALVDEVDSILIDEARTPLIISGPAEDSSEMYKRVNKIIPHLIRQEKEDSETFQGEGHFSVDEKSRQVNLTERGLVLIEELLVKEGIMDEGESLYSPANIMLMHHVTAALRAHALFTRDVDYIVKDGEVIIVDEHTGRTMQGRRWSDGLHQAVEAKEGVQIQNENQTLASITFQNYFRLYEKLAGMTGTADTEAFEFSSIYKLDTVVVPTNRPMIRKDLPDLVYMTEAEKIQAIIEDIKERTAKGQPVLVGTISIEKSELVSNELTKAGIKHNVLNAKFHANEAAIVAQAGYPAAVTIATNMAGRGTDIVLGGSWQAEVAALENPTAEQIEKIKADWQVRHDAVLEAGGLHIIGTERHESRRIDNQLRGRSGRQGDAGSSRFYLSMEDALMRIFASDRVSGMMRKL

Compound	MIC, E. coli NR698 [1] [µM]	MIC, S. aureus 6538 [2] [µM]	IC50 [3] [µM]	MIC [1] [µM]	MIC [2] [µM]
OCCCCSc1nc(Cl)cc(Sc2nnc(-c3cc(C(F)(F)F)cc(C(F)(F)F)c3)[nH]2)n1 [Compound 12e, 4-((4-((5-(3,5-Bis(trifluoromethyl)phenyl)-4H-1,2,4-triazol-3-yl)thio)-6-chloropyri-midin-2-yl)thio) butan-1-ol]	43.8 (≈ 23.2 µg/mL)	25.0 (≈ 13.2 µg/mL)			
CSc1nc(Cl)cc(Sc2nnc(-c3cc(C(F)(F)F)cc(C(F)(F)F)c3)o2)n1 [Compound 15, 2-(3,5-Bis(trifluoromethyl)phenyl)-5-((6-chloro-2-(methylthio)pyrimidin-4-yl)thio)-1,3,4-oxadiazole]			200	> 100	> 250
CSc1nc(Cl)c2c(n1)Sc1nnc(-c3cc(C(F)(F)F)cc(C(F)(F)F)c3)n1NC2 [Compound 25]			46	> 250	> 100
CSc1nc(C)cc(Sc2nnc(-c3cc(C(F)(F)F)cc(C(F)(F)F)c3)[nH]2)n1 [Compound 7a, 4-((5-(3,5-Bis(trifluoromethyl)phenyl)-4H-1,2,4-triazol-3-yl)thio)-6-methyl-2-(methylthio) pyrimidine]				33.3 (≈ 15 µg/mL)	18.8 (≈ 8.49 µg/mL)
FC(F)(F)c1cc(-c2nnc(Sc3cc(Cl)ncn3)[nH]2)cc(C(F)(F)F)c1 [Compound 9b, 4-((5-(3,5-Bis(trifluoromethyl)phenyl)-4H-1,2,4-triazol-3-yl)thio)-6-chloropyrimidine]			100	35.4 (≈ 15.1 µg/mL)	18.8 (≈ 8 µg/mL)
Fc1cccc(-c2nnc(Sc3nc(Cl)cc(Cl)n3)[nH]2)c1 [Compound 16d, 4,6-Dichloro-2-((5-(3-fluorophenyl)-4H-1,2,4-triazol-3-yl)thio) pyrimidine]			> 100	200 (≈ 68.4 µg/mL)	≥ 100
CCc1ccc(-c2nc(Sc3nc(Cl)cc(Cl)n3)[nH]c(=O)c2C#N)cc1 [Compound 20b, 2-((4,6-Dichloropyrimidin-2-yl)thio)-4-(4-ethylphenyl)-6-oxo-1,6-dihydropyrimidine-5-carbonitrile]			< 50	> 250	> 250
COc1cc(OC)cc(-c2nnc(Sc3cc(Cl)nc(Sc4ccccc4)n3)[nH]2)c1 [Compound 12h, 4-Chloro-6-((5-(3,5-dimethoxyphenyl)-4H-1,2,4-triazol-3-yl)thio)-2-(phenylthio) pyrimidine]			< 50	> 250	≥ 100
CSc1nc(Cl)cc(Sc2nnc(-c3ccc(C(F)(F)F)cc3)[nH]2)n1 [Compound 7i, 4-Chloro-2-(methylthio)-6-((5-(4-(trifluoromethyl)phenyl)-4H-1,2,4-triazol-3-yl)thio) pyrimidine]			< 50	25 (≈ 10.1 µg/mL)	14.6 (≈ 5.9 µg/mL)
FC(F)(F)c1cc(-c2n[nH]c(Oc3nc(Cl)cc(Oc4nnc(-c5cc(C(F)(F)F)cc(C(F)(F)F)c5)[nH]4)n3)n2)cc(C(F)(F)F)c1 [Compound 18]			< 50	> 250	250 (≈ 176 µg/mL)
Cc1cc(C)cc(-c2nnc(Sc3cc(Cl)ncn3)[nH]2)c1 [Compound 9a, 4-Chloro-6-((5-(3,5-dimethylphenyl)-4H-1,2,4-triazol-3-yl)thio) pyrimidine]			> 200	> 250	> 250
N#Cc1c(-c2ccc(Br)cc2)nc(Sc2nc(Cl)cc(Cl)n2)[nH]c1=O [Compound 20a, 4-(4-Bromophenyl)-2-((4,6-dichloropyrimidin-2-yl)thio)-6-oxo-1,6-dihydropyrimidine-5-carbonitrile]			< 50	> 250	> 250
Fc1cc(F)cc(-c2nnc(Sc3cc(Cl)nc(Sc4ccccc4)n3)[nH]2)c1 [Compound 12f, 4-Chloro-6-((5-(3,5-difluorophenyl)-4H-1,2,4-triazol-3-yl)thio)-2-(phenylthio) pyrimidine]			< 50	31.3 (≈ 13.6 µg/mL)	20.8 (≈ 9.03 µg/mL)
FC(F)(F)c1cc(-c2n[nH]c(Sc3nc(Cl)cc(Cl)n3)n2)cc(C(F)(F)F)c1 [Compound 16a, 2-((3-(3,5-Bis(trifluoromethyl)phenyl)-1H-1,2,4-triazol-5-yl)thio)-4,6-dichloropyrimidine]			50	12.5 (≈ 5.75 µg/mL)	6.3 (≈ 2.9 µg/mL)
CSc1nc(Cl)c2c(n1)Sc1nnc(-c3cc(C(F)(F)F)cc(C(F)(F)F)c3)n1N=C2 [Compound 24]			< 25	12.5 (≈ 6.21 µg/mL)	3.1 (≈ 1.54 µg/mL)
COc1cc(OC)cc(-c2nnc(Sc3cc(Cl)nc(SC)n3)[nH]2)c1 [Compound 7h, 4-Chloro-6-((5-(3,5-dimethoxyphenyl)-4H-1,2,4-triazol-3-yl)thio)-2-(methylthio) pyrimidine]			< 50	100 (≈ 39.6 µg/mL)	> 250
CSc1nc(Cl)cc(Sc2nnc(-c3cccc(F)c3)[nH]2)n1 [Compound 7f, 4-Chloro-6-((5-(3-fluorophenyl)-4H-1,2,4-triazol-3-yl)thio)-2-(methylthio) pyrimidine]			< 50	200 (≈ 70.8 µg/mL)	175 (≈ 61.9 µg/mL)
FC(F)(F)c1cccc(-c2nnc(Sc3cc(Cl)nc(Sc4ccccc4)n3)[nH]2)c1 [Compound 12g, 4-Chloro-2-(phenylthio)-6-((5-(3-(trifluoromethyl)phenyl)-4H-1,2,4-triazol-3-yl)thio) pyrimidine]			< 50	18.8 (≈ 8.76 µg/mL)	18.8 (≈ 8.76 µg/mL)
CSc1nc(Cl)cc(Sc2nnc(-c3cccc(C(F)(F)F)c3)[nH]2)n1 [Compound 7j, 4-Chloro-2-(methylthio)-6-((5-(3-(trifluoromethyl)phenyl)-4H-1,2,4-triazol-3-yl)thio) pyrimidine]			< 50	> 250	> 250
CSc1nccc(Sc2nnc(-c3cc(C)cc(C)c3)[nH]2)n1 [Compound 7d, 4-((5-(3,5-Dimethylphenyl)-4H-1,2,4-triazol-3-yl)thio)-2-(methylthio) pyrimidine]			65	> 250	> 250
Cc1cc(C)cc(-c2nnc(Sc3cc(Cl)nc(Sc4ccccc4)n3)[nH]2)c1 [Compound 12b, 4-Chloro-6-((5-(3,5-dimethylphenyl)-4H-1,2,4-triazol-3-yl)thio)-2-(phenylthio) pyri-midine]	>250	12.5 (≈ 5.32 µg/mL)			
CSC1=NC2=C(CN1)CNn1c(nnc1-c1cc(C(F)(F)F)cc(C(F)(F)F)c1)S2 [Compound 26]			50	> 100	> 100
CSc1nccc(Sc2nnc(-c3cc(C(F)(F)F)cc(C(F)(F)F)c3)[nH]2)n1 [Compound 7c, 4-((5-(3,5-Bis(trifluoromethyl)phenyl)-4H-1,2,4-triazol-3-yl)thio)-2-(methylthio) pyrimidine]			95	50 (≈ 21.9 µg/mL)	62.5 (≈ 27.3 µg/mL)
FC(F)(F)c1cc(-c2nnc(S)[nH]2)cc(C(F)(F)F)c1 [Compound 5a, 5-(3,5-Bis(trifluoromethyl)phenyl)-4H-1,2,4-triazole-3-thiol]			60	> 250	> 250
Cc1cc(C)cc(-c2n[nH]c(Sc3nc(Cl)cc(Cl)n3)n2)c1 [Compound 16b, 4,6-Dichloro-2-((3-(3,5-dimethylphenyl)-1H-1,2,4-triazol-5-yl)thio) pyrimidine]				> 164	100 (≈ 35.2 µg/mL)
